Laboratory results: ChEMBL document CHEMBL4673324, “Xanthones for melanogenesis inhibition: Molecular docking and QSAR studies to understand their anti-tyrosinase activity” (Bioorg Med Chem, 2021)

Experiments:
Mushroom tyrosinase = Mushroom tyrosinase (Agaricus bisporus, UniProt O42713+Q00024+C7FF04+C7FF05); assay: Inhibition of mushroom tyrosinase using tyrosine as substrate incubated for 20 mins followed by substrate addition and measured every 10 mins for 30 mins
[1] = Inhibition of Elastase (unknown origin) using N-methoxysuccinyl-Ala-Ala-Pro-Val-p-nitroanilide as substrate incubated for 20 mins followed by substrate addition and measured after 40 mins; parameters: species or system Homo sapiens
[2] = compound: COc1cc(C)c2c(=O)c3ccccc3oc2c1OC; assay: Uncompetitive inhibition of Tyrosinase (unknown origin) assessed as Michaelis-Menten constant at 4 uM using tyrosine as substrate incubated for 20 mins followed by substrate addition and measured every 10 mins for 30 mins by Lineweaver-Burk plot analysis (reference value: […] +/- […] mM); conditions: Homo sapiens, time 50.0 min
[3] = compound: Cc1cc(O)c(O)c2oc3cc(O)ccc3c(=O)c12; assay: Uncompetitive inhibition of Tyrosinase (unknown origin) assessed as maximal velocity at 3.30 uM using tyrosine as substrate incubated for 20 mins followed by substrate addition and measured every 10 mins for 30 mins by Lineweaver-Burk plot analysis (reference value: […] +/- […] /min); conditions: Homo sapiens; dose 3.3 µM, time 50.0 min
[4] = compound: Cc1cc(O)c(O)c2oc3cc(O)ccc3c(=O)c12; assay: Uncompetitive inhibition of Tyrosinase (unknown origin) assessed as maximal velocity at 13.2 uM using tyrosine as substrate incubated for 20 mins followed by substrate addition and measured every 10 mins for 30 mins by Lineweaver-Burk plot analysis (reference value: […] +/- […] /min); conditions: Homo sapiens, time 50.0 min
[5] = compound: COc1cc(C)c2c(=O)c3ccccc3oc2c1OC; assay: Uncompetitive inhibition of Tyrosinase (unknown origin) assessed as maximal velocity at 16 uM using tyrosine as substrate incubated for 20 mins followed by substrate addition and measured every 10 mins for 30 mins by Lineweaver-Burk plot analysis (reference value: […] +/- […] /min); conditions: Homo sapiens, time 50.0 min
[6] = compound: COc1cc(C)c2c(=O)c3ccccc3oc2c1OC; assay: Uncompetitive inhibition of Tyrosinase (unknown origin) assessed as maximal velocity at 4 uM using tyrosine as substrate incubated for 20 mins followed by substrate addition and measured every 10 mins for 30 mins by Lineweaver-Burk plot analysis (reference value: […] +/- […] /min); conditions: Homo sapiens, time 50.0 min
[7] = compound: Cc1cc(O)c(O)c2oc3cc(O)ccc3c(=O)c12; assay: Uncompetitive inhibition of Tyrosinase (unknown origin) assessed as Michaelis-Menten constant at 1.65 uM using tyrosine as substrate incubated for 20 mins followed by substrate addition and measured every 10 mins for 30 mins by Lineweaver-Burk plot analysis (reference value: […] +/- […] mM); conditions: Homo sapiens, time 50.0 min
[8] = compound: COc1cc(C)c2c(=O)c3ccccc3oc2c1OC; assay: Uncompetitive inhibition of Tyrosinase (unknown origin) assessed as Michaelis-Menten constant at 16 uM using tyrosine as substrate incubated for 20 mins followed by substrate addition and measured every 10 mins for 30 mins by Lineweaver-Burk plot analysis (reference value: […] +/- […] mM); conditions: Homo sapiens, time 50.0 min
[9] = compound: Cc1cc(O)c(O)c2oc3cc(O)ccc3c(=O)c12; assay: Uncompetitive inhibition of Tyrosinase (unknown origin) assessed as Michaelis-Menten constant at 6.6 uM using tyrosine as substrate incubated for 20 mins followed by substrate addition and measured every 10 mins for 30 mins by Lineweaver-Burk plot analysis (reference value: […] +/- […] mM); conditions: Homo sapiens, time 50.0 min
[10] = compound: COc1cc(C)c2c(=O)c3ccccc3oc2c1OC; assay: Uncompetitive inhibition of Tyrosinase (unknown origin) assessed as maximal velocity at 8 uM using tyrosine as substrate incubated for 20 mins followed by substrate addition and measured every 10 mins for 30 mins by Lineweaver-Burk plot analysis (reference value: […] +/- […] /min); conditions: Homo sapiens, time 50.0 min
[11] = compound: COc1cc(C)c2c(=O)c3ccccc3oc2c1OC; assay: Uncompetitive inhibition of Tyrosinase (unknown origin) assessed as Michaelis-Menten constant at 8 uM using tyrosine as substrate incubated for 20 mins followed by substrate addition and measured every 10 mins for 30 mins by Lineweaver-Burk plot analysis (reference value: […] +/- […] mM); conditions: Homo sapiens, time 50.0 min
[12] = compound: Cc1cc(O)c(O)c2oc3cc(O)ccc3c(=O)c12; assay: Uncompetitive inhibition of Tyrosinase (unknown origin) assessed as maximal velocity at 6.60 uM using tyrosine as substrate incubated for 20 mins followed by substrate addition and measured every 10 mins for 30 mins by Lineweaver-Burk plot analysis (reference value: […] +/- […] /min); conditions: Homo sapiens; dose 6.6 µM, time 50.0 min
[13] = compound: Cc1cc(O)c(O)c2oc3cc(O)ccc3c(=O)c12; assay: Uncompetitive inhibition of Tyrosinase (unknown origin) assessed as Michaelis-Menten constant at 3.3 uM using tyrosine as substrate incubated for 20 mins followed by substrate addition and measured every 10 mins for 30 mins by Lineweaver-Burk plot analysis (reference value: […] +/- […] mM); conditions: Homo sapiens, time 50.0 min
[14] = compound: Cc1cc(O)c(O)c2oc3cc(O)ccc3c(=O)c12; assay: Uncompetitive inhibition of Tyrosinase (unknown origin) assessed as maximal velocity at 1.65 uM using tyrosine as substrate incubated for 20 mins followed by substrate addition and measured every 10 mins for 30 mins by Lineweaver-Burk plot analysis (reference value: […] +/- […] /min); conditions: Homo sapiens, time 50.0 min
[15] = compound: Cc1cc(O)c(O)c2oc3cc(O)ccc3c(=O)c12; assay: Uncompetitive inhibition of Tyrosinase (unknown origin) assessed as Michaelis-Menten constant at 13.2 uM using tyrosine as substrate incubated for 20 mins followed by substrate addition and measured every 10 mins for 30 mins by Lineweaver-Burk plot analysis (reference value: […] +/- […] mM); conditions: Homo sapiens, time 50.0 min
[16] = compound: COc1cc(C)c2c(=O)c3ccccc3oc2c1OC; assay: Uncompetitive inhibition of Tyrosinase (unknown origin) assessed as maximal velocity at 2 uM using tyrosine as substrate incubated for 20 mins followed by substrate addition and measured every 10 mins for 30 mins by Lineweaver-Burk plot analysis (reference value: […] +/- […] /min); conditions: Homo sapiens, time 50.0 min
[17] = compound: COc1cc(C)c2c(=O)c3ccccc3oc2c1OC; assay: Uncompetitive inhibition of Tyrosinase (unknown origin) assessed as Michaelis-Menten constant at 2 uM using tyrosine as substrate incubated for 20 mins followed by substrate addition and measured every 10 mins for 30 mins by Lineweaver-Burk plot analysis (reference value: […] +/- […] mM); conditions: Homo sapiens, time 50.0 min

| Molecule | IC50 (Mushroom tyrosinase) [µM] | also measured |
| --- | --- | --- |
| O=Cc1cc(O)c(O)c2oc3ccccc3c(=O)c12 | 89.37 |  |
| COc1c(O)ccc2c(=O)c3ccccc3oc12 | 3.81 |  |
| H-MAAPVCK-OH |  | IC50 [1]: 0.26 µM |
| O=c1c2ccccc2oc2ccccc12 [XANTHONE] | 8.84 |  |
| O=c1c2ccccc2oc2ccc(O)c(O)c12 | 7.8 |  |
| COc1ccc2c(=O)c3ccccc3oc2c1O | 5.2 |  |
| O=c1c2ccc(O)cc2oc2cc(O)ccc12 | 4.42 | IC50 [1]: 91.8 µM |
| COc1cccc2c(=O)c3ccccc3oc12 | 5.33 |  |
| COc1cc2oc3ccccc3c(=O)c2cc1OC | 8.29 |  |
| COc1cccc2oc3ccccc3c(=O)c12 | 5.14 |  |
| COc1ccc2c(=O)c3ccccc3oc2c1 | 5.14 |  |
| O=c1c2ccccc2oc2c(O)cccc12 | 8.46 |  |
| COc1ccc2oc3ccccc3c(=O)c2c1 | 8.47 |  |
| COc1ccc2c(=O)c3c(C)c(Br)c(OC)c(OC)c3oc2c1 | 5.57 |  |
| O=c1c2ccccc2oc2c(O)c(O)ccc12 [3,4-DIHYDROXYXANTHONE] | 5.12 |  |
| COc1cc(C=O)c2c(=O)c3ccc(O)cc3oc2c1OC | 3.16 |  |
| O=c1c2ccccc2oc2cc(O)ccc12 | 9.26 |  |
| COc1cc(C(Br)Br)c2c(=O)c3ccccc3oc2c1OC | 3.37 |  |
| O=c1c2cc(O)ccc2oc2cccc(O)c12 | 4.52 |  |
| Tyrosinase (Homo sapiens), P14679 (protein) MLLAVLYCLLWSFQTSAGHFPRACVSSKNLMEKECCPPWSGDRSPCGQLSGRGSCQNILLSNAPLGPQFPFTGVDDRESWPSVFYNRTCQCSGNFMGFNCGNCKFGFWGPNCTERRLLVRRNIFDLSAPEKDKFFAYLTLAKHTISSDYVIPIGTYGQMKNGSTPMFNDINIYDLFVWMHYYVSMDALLGGSEIWRDIDFAHEAPAFLPWHRLFLLRWEQEIQKLTGDENFTIPYWDWRDAEKCDICTDEYMGGQHPTNPNLLSPASFFSSWQIVCSRLEEYNSHQSLCNGTPEGPLRRNPGNHDKSRTPRLPSSADVEFCLSLTQYESGSMDKAANFSFRNTLEGFASPLTGIADASQSSMHNALHIYMNGTMSQVQGSANDPIFLLHHAFVDSIFEQWLRRHRPLQEVYPEANAPIGHNRESYMVPFIPLYRNGDFFISSKDLGYDYSYLQDSDPDSFQDYIKSYLEQASRIWSWLLGAAMVGAVLTALLAGLVSLLCRHKRKQLPEEKQPLLMEKEDYHSLYQSHL |  | Km [2]: 41 µM; Vmax [3]: 0.0035 min⁻¹; Vmax [4]: 0.0028 min⁻¹; Vmax [5]: 0.0019 min⁻¹; Vmax [6]: 0.0031 min⁻¹; Km [7]: 63 µM; Km [8]: 26 µM; Km [9]: 46 µM; Vmax [10]: 0.0025 min⁻¹; Km [11]: 27 µM; Vmax [12]: 0.0032 min⁻¹; Km [13]: 51 µM; Vmax [14]: 0.0037 min⁻¹; Km [15]: 28 µM; Vmax [16]: 0.0036 min⁻¹; Km [17]: 53 µM |

Now from value to molecule, other results behind:

| IC50 (Mushroom tyrosinase) [µM] | Molecule | also measured |
| --- | --- | --- |
| 5.7 | O=c1c2ccccc2oc2cc(O)c(O)cc12 |  |
| 2 | COc1cc(C)c2c(=O)c3ccccc3oc2c1OC |  |
| 1.9 | COc1ccc2c(=O)c3c(C)c(Cl)c(OC)c(OC)c3oc2c1 |  |
| 2.24 | COc1ccc2c(=O)c3c(C)cc(OC)c(OC)c3oc2c1 |  |
| 3.01 | COc1c(O)cc2oc3ccccc3c(=O)c2c1O |  |
| 29.13 | COc1cc(C=O)c2c(=O)c3ccccc3oc2c1OC |  |
| 8.93 | Cc1cc(O)c(O)c2oc3ccccc3c(=O)c12 |  |
| 4.02 | COc1ccc2oc3ccccc3c(=O)c2c1OC |  |
| 5.12 | COc1ccc2c(=O)c3ccccc3oc2c1OC |  |
| 5.6 | O=c1c2ccccc2oc2ccc(O)cc12 |  |
| 3.28 | Cc1cc(O)c(O)c2oc3cc(O)ccc3c(=O)c12 |  |
